Measured values reported in patent publication EP0496332A1, “Alpha-aminoquinolinoyl-[3]-penicillines, process for their preparation and their use as antibacterial agents” (ARZNEIMITTELWERK DRESDEN GmbH, priority 1991, dated 1992).
Converted amounts (≈) assume the structure as drawn.

How the values were obtained:
Assay in all cases: In-vitro test, inhibitory concentration by dilution series
Format in all cases: cell-based
[1] = test system: Salmonella gallinarium ATCC 9184; conditions: ATCC9184; VI = Salmonella gallinarium ATCC 9184; step = concentration with no visible growth; read-out: Hemmkonzentration nach Verdünnung (Verdünnungsreihe) (converted)
Excerpt: (§1) Die antibiotische Wirksamkeit erfindungsgemäßer Verbindungen wurde in der üblichen Weise durch Ermittlung der Hemmkonzentrationen nach Verdünnung ermittelt.
(§2) Die erhaltenen Ergebnisse sind in der nachstehenden Tabelle zusammengefaßt.

[2] = test system: Serratia marcescens SG 621; conditions: VIII = Serratia marcescens SG 621, step = concentration with no visible growth; for MIC: SG621, read-out: Hemmkonzentration nach Verdünnung (Verdünnungsreihe) (converted)
Excerpt: as §1, §2

Enterokokken = conditions: XI = Enterokokken, Laborstämme, step = concentration with no visible growth; for MIC: read-out: Hemmkonzentration nach Verdünnung (Verdünnungsreihe) (converted)
Excerpt: as §1, §2

[3] = test system: Staphylococcus epidermidis; conditions: X = Staphylococcus epidermidis, Laborstämme, step = concentration with no visible growth; for MIC: read-out: Hemmkonzentration nach Verdünnung (Verdünnungsreihe) (converted)
Excerpt: as §1, §2

Enterobacter cloacae = conditions: XIII = Enterobacter cloacae, Laborstämme, step = concentration with no visible growth; for MIC: read-out: Hemmkonzentration nach Verdünnung (Verdünnungsreihe) (converted)
Excerpt: as §1, §2

Bacillus subtilis SG 119 = conditions: I = Bacillus subtilis SG 119, step = concentration with no visible growth; for MIC: SG119, read-out: Hemmkonzentration nach Verdünnung (Verdünnungsreihe) (converted)
Excerpt: as §1, §2

Staphylococcus aureus = conditions: IX = Staphylococcus aureus, Laborstämme, step = concentration with no visible growth; for MIC: read-out: Hemmkonzentration nach Verdünnung (Verdünnungsreihe) (converted)
Excerpt: as §1, §2

Proteus vulgaris OX 19 = conditions: III = Proteus vulgaris OX 19, step = concentration with no visible growth; for MIC: OX19, read-out: Hemmkonzentration nach Verdünnung (Verdünnungsreihe) (converted)
Excerpt: as §1, §2

[4] = test system: Klebsiella pneumoniae SG 117; conditions: VII = Klebsiella pneumoniae SG 117, step = concentration with no visible growth; for MIC: SG117, read-out: Hemmkonzentration nach Verdünnung (Verdünnungsreihe) (converted)
Excerpt: as §1, §2

Citrobacter freudii = conditions: XIV = Citrobacter freudii, Laborstämme, step = concentration with no visible growth; for MIC: read-out: Hemmkonzentration nach Verdünnung (Verdünnungsreihe) (converted)
Excerpt: as §1, §2

[5] = test system: Pseudomonas aeruginosa SG 137; conditions: V = Pseudomonas aeruginosa SG 137, step = concentration with no visible growth; for MIC: SG137, read-out: Hemmkonzentration nach Verdünnung (Verdünnungsreihe) (converted)
Excerpt: as §1, §2

[6] = test system: Staphylococcus aureus SG 511; conditions: II = Staphylococcus aureus SG 511, step = concentration with no visible growth; for MIC: SG511, read-out: Hemmkonzentration nach Verdünnung (Verdünnungsreihe) (converted)
Excerpt: as §1, §2

Escherichia coli = conditions: XII = Escherichia coli, Laborstämme, step = concentration with no visible growth; for MIC: read-out: Hemmkonzentration nach Verdünnung (Verdünnungsreihe) (converted)
Excerpt: as §1, §2

[7] = test system: Pseudomonas aeruginosa NCTC 10701; conditions: IV = Pseudomonas aeruginosa NCTC 10701, step = concentration with no visible growth; for MIC: NCTC10701, read-out: Hemmkonzentration nach Verdünnung (Verdünnungsreihe) (converted)
Excerpt: as §1, §2

| SMILES | MIC [1] [µM] | MIC [2] [µM] | MIC (Enterokokken) [µM] | MIC [3] [µM] | MIC (Enterobacter cloacae) [µM] | MIC (Bacillus subtilis SG 119) [µM] | MIC (Staphylococcus aureus) [µM] | MIC (Proteus vulgaris OX 19) [µM] | MIC [4] [µM] | MIC (Citrobacter freudii) [µM] | MIC [5] [µM] | MIC [6] [µM] | MIC (Escherichia coli) [µM] | MIC [7] [µM] | other results |
| --- | --- | --- | --- | --- | --- | --- | --- | --- | --- | --- | --- | --- | --- | --- | --- |
| CC(C)COC(=O)Oc1c(C(=O)N[C@@H](C(=O)N[C@@H]2C(=O)N3[C@@H]2SC(C)(C)[C@@H]3C(=O)O)c2ccccc2)cnc2ccc(C(C)C)cc12 [Beisp. 11, 6-[D-(-)-α-([4'-Isobutoxycarbonyloxy-6'-isopropyl-chinolinoyl-3']-carboxamido)-α-phenylacetamido]-penicillansäure-Natriumsalz] | 3.12 (≈ 2.07 µg/mL) | 3.12 (≈ 2.07 µg/mL) | 12.5 (≈ 8.28 µg/mL) | 12.5 (≈ 8.28 µg/mL) | 12.5 (≈ 8.28 µg/mL) | 3.12 (≈ 2.07 µg/mL) | 25 (≈ 16.6 µg/mL) | 0.78 (≈ 0.517 µg/mL) | 3.12 (≈ 2.07 µg/mL) | 12.5 (≈ 8.28 µg/mL) | 12.5 (≈ 8.28 µg/mL) | 3.12 (≈ 2.07 µg/mL) | 3.12 (≈ 2.07 µg/mL) | 1.56 (≈ 1.03 µg/mL) |  |
| CCc1cc2c(OC(=O)OCC(C)C)c(C(=O)N[C@@H](C(=O)N[C@@H]3C(=O)N4[C@@H]3SC(C)(C)[C@@H]4C(=O)O)c3ccccc3)cnc2cc1COc1ccc(Cl)c(C)c1 [Beisp. 17, 6-[D-(-)-α-([4'-Isobutoxycarbonyloxy-6'-ethyl-7'-(3''-methyl-4''-chlor)-phenoxymethylen-chinolinoyl-3']-carboxamido)-α-phenylacetamido]-penicillansäure-Natriumsalz] | 3.12 (≈ 2.51 µg/mL) | 1.56 (≈ 1.25 µg/mL) | 25 (≈ 20.1 µg/mL) | 6.25 (≈ 5.02 µg/mL) | 6.25 (≈ 5.02 µg/mL) | 1.56 (≈ 1.25 µg/mL) | 25 (≈ 20.1 µg/mL) | 0.78 (≈ 0.627 µg/mL) | 0.39 (≈ 0.313 µg/mL) | 6.25 (≈ 5.02 µg/mL) | 6.25 (≈ 5.02 µg/mL) | 1.56 (≈ 1.25 µg/mL) | 1.56 (≈ 1.25 µg/mL) | 6.25 (≈ 5.02 µg/mL) |  |
| CCOC(=O)Oc1c(C(=O)N[C@@H](C(=O)N[C@@H]2C(=O)N3[C@@H]2SC(C)(C)[C@@H]3C(=O)O)c2ccccc2)cnc2cc(COc3ccc(C)cc3)c(CC)cc12 [Beisp. 3, 6-[D-(-)-α-([4'-Ethoxycarbonyloxy-6'-ethyl-7'-(4''-methyl)-phenoxymethylen-chinolinoyl-3']-carboxamido)-α-phenylacetamido]-penicillansäure-Natriumsalz] | 3.12 (≈ 2.31 µg/mL) | 0.78 (≈ 0.578 µg/mL) | 25 (≈ 18.5 µg/mL) | 12.5 (≈ 9.26 µg/mL) | 6.25 (≈ 4.63 µg/mL) | 1.56 (≈ 1.16 µg/mL) | 50 (≈ 37 µg/mL) | 0.39 (≈ 0.289 µg/mL) | 0.78 (≈ 0.578 µg/mL) | 6.25 (≈ 4.63 µg/mL) | 12.5 (≈ 9.26 µg/mL) | 0.78 (≈ 0.578 µg/mL) | 1.56 (≈ 1.16 µg/mL) | 3.12 (≈ 2.31 µg/mL) |  |
| CCc1cc2c(OC(=O)OCC(C)C)c(C(=O)N[C@@H](C(=O)N[C@@H]3C(=O)N4[C@@H]3SC(C)(C)[C@@H]4C(=O)O)c3ccccc3)cnc2cc1COC(C)CC (stereo partly drawn) [Beisp. 22, 6-[D-(-)-α-([4'-Isobutoxycarbonyloxy-6'-ethyl-7'-s-butoxymethylen-chinolinoyl-3']-carboxamido)-α-phenylacetamido]-penicillansäure-Natriumsalz] | 1.56 (≈ 1.15 µg/mL) | 1.56 (≈ 1.15 µg/mL) | 12.5 (≈ 9.19 µg/mL) | 12.5 (≈ 9.19 µg/mL) | 6.25 (≈ 4.59 µg/mL) | 1.56 (≈ 1.15 µg/mL) | 25 (≈ 18.4 µg/mL) | 0.39 (≈ 0.287 µg/mL) | 0.78 (≈ 0.573 µg/mL) | 3.12 (≈ 2.29 µg/mL) | 12.5 (≈ 9.19 µg/mL) | 1.56 (≈ 1.15 µg/mL) | 1.56 (≈ 1.15 µg/mL) | 0.78 (≈ 0.573 µg/mL) |  |
| COc1cc2ncc(C(=O)N[C@@H](C(=O)N[C@@H]3C(=O)N4[C@@H]3SC(C)(C)[C@@H]4C(=O)O)c3ccccc3)c(OC(=O)OCC(C)C)c2cc1OC [Beisp. 20, 6-[D-(-)-α-([4'-Isobutoxycarbonyloxy-6',7'-dimethoxychinolinoyl-3']-carboxamido)-α-phenylacetamido]-penicillansäure-Natriumsalz] | 3.12 (≈ 2.12 µg/mL) | 6.25 (≈ 4.25 µg/mL) | 12.5 (≈ 8.51 µg/mL) | 6.25 (≈ 4.25 µg/mL) | 12.5 (≈ 8.51 µg/mL) | 1.56 (≈ 1.06 µg/mL) | 25 (≈ 17 µg/mL) | 0.39 (≈ 0.265 µg/mL) | 1.56 (≈ 1.06 µg/mL) | 12.5 (≈ 8.51 µg/mL) | 12.5 (≈ 8.51 µg/mL) | 1.56 (≈ 1.06 µg/mL) | 3.12 (≈ 2.12 µg/mL) | 0.39 (≈ 0.265 µg/mL) |  |
| CCCOCc1cc2ncc(C(=O)N[C@@H](C(=O)N[C@@H]3C(=O)N4[C@@H]3SC(C)(C)[C@@H]4C(=O)O)c3ccccc3)c(OC(=O)OCC)c2cc1CC [Beisp. 5, 6-[D-(-)-α-([4'-Ethoxycarbonyloxy-6'-ethyl-7'-n-propoxymethylen-chinolinoyl-3']-carboxamido)-α-phenylacetamido]-penicillansäure-Natriumsalz] | 3.12 (≈ 2.16 µg/mL) | 1.56 (≈ 1.08 µg/mL) | 6.25 (≈ 4.33 µg/mL) | 3.12 (≈ 2.16 µg/mL) | 6.25 (≈ 4.33 µg/mL) | 0.78 (≈ 0.54 µg/mL) | 6.25 (≈ 4.33 µg/mL) | 0.78 (≈ 0.54 µg/mL) | 3.12 (≈ 2.16 µg/mL) | 6.25 (≈ 4.33 µg/mL) | 3.12 (≈ 2.16 µg/mL) | 1.56 (≈ 1.08 µg/mL) | 1.56 (≈ 1.08 µg/mL) | 0.78 (≈ 0.54 µg/mL) |  |
| CCOC(=O)Oc1c(C(=O)N[C@@H](C(=O)N[C@@H]2C(=O)N3[C@@H]2SC(C)(C)[C@@H]3C(=O)O)c2ccccc2)cnc2cc(COc3ccc(Br)cc3)c(CC)cc12 [Beisp. 2, 6-[D-(-)-α-([4'-Ethoxycarbonyloxy-6'-ethyl-7'-(4''-brom)-phenoxymethylen-chinolinoyl-3']-carboxamido)-α-phenylacetamido]-penicillansäure-Natriumsalz] | 1.56 (≈ 1.26 µg/mL) | 1.56 (≈ 1.26 µg/mL) | 12.5 (≈ 10.1 µg/mL) | 12.5 (≈ 10.1 µg/mL) | 6.25 (≈ 5.04 µg/mL) | 3.12 (≈ 2.51 µg/mL) | 25 (≈ 20.1 µg/mL) | 0.78 (≈ 0.628 µg/mL) | 0.78 (≈ 0.628 µg/mL) | 6.25 (≈ 5.04 µg/mL) | 12.5 (≈ 10.1 µg/mL) | 1.56 (≈ 1.26 µg/mL) | 1.56 (≈ 1.26 µg/mL) | 6.25 (≈ 5.04 µg/mL) |  |
| CCc1cc2c(OC(=O)OCC(C)C)c(C(=O)N[C@@H](C(=O)N[C@@H]3C(=O)N4[C@@H]3SC(C)(C)[C@@H]4C(=O)O)c3ccccc3)cnc2cc1COC [Beisp. 18, 6-[D-(-)-α-([4'-Isobutoxycarbonyloxy-6'-ethyl-7'-methoxymethylen-chinolinoyl-3']-carboxamido)-α-phenylacetamido]-penicillansäure-Natriumsalz] | 3.12 (≈ 2.16 µg/mL) | 3.12 (≈ 2.16 µg/mL) | 25 (≈ 17.3 µg/mL) | 6.25 (≈ 4.33 µg/mL) | 6.25 (≈ 4.33 µg/mL) | 1.56 (≈ 1.08 µg/mL) | 0.39 (≈ 0.27 µg/mL) | 0.39 (≈ 0.27 µg/mL) | 0.78 (≈ 0.54 µg/mL) | 6.25 (≈ 4.33 µg/mL) | 6.25 (≈ 4.33 µg/mL) | 1.56 (≈ 1.08 µg/mL) | 1.56 (≈ 1.08 µg/mL) | 0.78 (≈ 0.54 µg/mL) |  |
| CC(C)COC(=O)Oc1c(C(=O)N[C@@H](C(=O)N[C@@H]2C(=O)N3[C@@H]2SC(C)(C)[C@@H]3C(=O)[O-])c2ccccc2)cnc2c1ccc1ccccc12.[Na+] [Beisp. 12, 6-[D-(-)-α-([4'-Isobutoxycarbonyloxybenzo[1,2n]chinolinoyl-3']-carboxamido)-α-phenylacetamido]-penicillansäure-Natriumsalz] |  |  |  |  |  |  |  |  |  |  |  |  |  |  | Hemmkonzentration nach Verdünnung (Verdünnungsreihe) [2]: 7 (= bei 0,00312 mM); Hemmkonzentration nach Verdünnung (Verdünnungsreihe) (Enterokokken): 5 (= bei 0,0125 mM); Hemmkonzentration nach Verdünnung (Verdünnungsreihe) [3]: 7 (= bei 0,00312 mM); Hemmkonzentration nach Verdünnung (Verdünnungsreihe) (Enterobacter cloacae): 6 (= bei 0,00625 mM); Hemmkonzentration nach Verdünnung (Verdünnungsreihe) (Bacillus subtilis SG 119): 7 (= bei 0,00312 mM); Hemmkonzentration nach Verdünnung (Verdünnungsreihe) (Staphylococcus aureus): 6 (= bei 0,00625 mM); Hemmkonzentration nach Verdünnung (Verdünnungsreihe) (Proteus vulgaris OX 19): 10 (= bei 0,00039 mM); Hemmkonzentration nach Verdünnung (Verdünnungsreihe) [4]: 9 (= bei 0,00078 mM); Hemmkonzentration nach Verdünnung (Verdünnungsreihe) (Citrobacter freudii): 6 (= bei 0,00625 mM); Hemmkonzentration nach Verdünnung (Verdünnungsreihe) [5]: 5 (= bei 0,0125 mM); Hemmkonzentration nach Verdünnung (Verdünnungsreihe) [6]: 9 (= bei 0,00078 mM); Hemmkonzentration nach Verdünnung (Verdünnungsreihe) (Escherichia coli): 7 (= bei 0,00312 mM); Hemmkonzentration nach Verdünnung (Verdünnungsreihe) [7]: 7 (= bei 0,00312 mM) |
